The source of these data is US20040132807A1, “Aurones as telomerase inhibitors” (priority 2001, published 2004).

SMILES strings stand for the structures.

T1 sequence (O14746 whole entry): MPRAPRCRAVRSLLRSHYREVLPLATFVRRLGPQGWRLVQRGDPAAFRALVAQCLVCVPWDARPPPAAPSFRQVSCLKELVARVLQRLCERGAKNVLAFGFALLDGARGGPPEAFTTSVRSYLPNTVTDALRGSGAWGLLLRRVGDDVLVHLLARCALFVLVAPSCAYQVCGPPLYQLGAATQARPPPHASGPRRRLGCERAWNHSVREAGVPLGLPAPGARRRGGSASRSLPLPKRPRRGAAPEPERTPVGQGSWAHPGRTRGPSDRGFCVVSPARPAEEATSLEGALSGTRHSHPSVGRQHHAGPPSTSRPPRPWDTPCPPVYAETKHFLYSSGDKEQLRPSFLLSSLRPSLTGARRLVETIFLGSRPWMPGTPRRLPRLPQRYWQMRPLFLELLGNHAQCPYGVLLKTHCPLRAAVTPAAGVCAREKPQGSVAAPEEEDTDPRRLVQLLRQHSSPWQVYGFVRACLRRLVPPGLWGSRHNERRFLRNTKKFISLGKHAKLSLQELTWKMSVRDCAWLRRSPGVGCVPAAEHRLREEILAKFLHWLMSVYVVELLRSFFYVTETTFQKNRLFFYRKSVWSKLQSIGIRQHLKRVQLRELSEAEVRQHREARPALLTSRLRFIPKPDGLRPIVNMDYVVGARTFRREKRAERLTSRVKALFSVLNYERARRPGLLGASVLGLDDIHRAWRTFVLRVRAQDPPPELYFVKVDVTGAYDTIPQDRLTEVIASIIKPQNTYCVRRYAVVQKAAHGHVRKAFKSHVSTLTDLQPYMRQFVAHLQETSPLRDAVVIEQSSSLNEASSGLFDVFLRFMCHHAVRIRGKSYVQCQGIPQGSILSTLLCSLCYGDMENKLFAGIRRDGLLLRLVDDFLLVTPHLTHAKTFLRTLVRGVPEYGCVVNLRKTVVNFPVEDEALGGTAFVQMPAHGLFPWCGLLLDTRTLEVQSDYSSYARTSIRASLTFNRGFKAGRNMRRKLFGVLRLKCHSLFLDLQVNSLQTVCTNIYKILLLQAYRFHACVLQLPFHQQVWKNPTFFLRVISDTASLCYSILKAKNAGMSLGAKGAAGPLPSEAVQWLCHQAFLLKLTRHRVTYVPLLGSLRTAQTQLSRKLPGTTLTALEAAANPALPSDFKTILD

This assay has as its target T1, telomerase enzyme (Homo sapiens, UniProt O14746).
T1 construct: telomerase enzyme diluted in a buffer
As to the kind of experiment: Flash Plate-based telomerase activity assay. Type of assay: biochemical. The conditions noted are these: two hours incubation at 37°, biotinylated oligo primer, radiolabeled probe, streptavidin flash plate; read-out: IC50 (telomerase inhibitory activity). On the procedure:
The telomerase activity of the compounds has been evaluated using a Flash Plate-based assay.
The assay mixture is constituted of:
telomerase enzyme diluted in a buffer, the composition of which has been selected to maintain the enzyme activity stable along the duration of the assay.
dNTPs, deoxynucleotides 5′-triphosphate.
biotinylated oligo as primer.
increasing concentrations of test compounds/positive control.
After two hours of incubation at 37° degrees the telomeric repeats added by telomerase are evaluated by hybridization in solution with a 3′-radioactive labeled short oligonucleotide probe. The extent of hybridization is then quantitated by transferring the reaction mixture in a streptavidin-coated flash plate, where the binding between biotin and streptavidin occurs. The telomerase activity is proportional to the radioactivity measured and the inhibitory activity of the compounds is evaluated as IC50 using the Sigma Plot fit program.
The IC50 values for the compounds of the present invention were determined according to the above-described method.
Take `O=C1C(=Cc2ccc(O)c(O)c2)Oc2c1ccc(O)c2O` [Compound 1, 2-(3,4-dihydroxybenzylidene)-6,7-dihydroxy-1-benzofuran-3(2H)-one]: the IC50 worked out at 0.3 µM.
For the compound `O=C1C(=Cc2ccc3c(c2)OCO3)Oc2c1ccc(O)c2O` [Compound 2, 2-(1,3-benzodioxol-5-ylmethylene)-6,7-dihydroxy-1-benzofuran-3(2H)-one], the half-maximal inhibitory concentration (IC50) was 13 µM.
In the case of `COc1ccc(C=C2Oc3c(ccc(O)c3O)C2=O)cc1OC` [Compound 3, 2-(3,4-dimethoxybenzylidene)-6,7-dihydroxy-1-benzofuran-3(2H)-one], the IC50 is 11 µM.
In the case of `O=C1C(=Cc2ccc(O)cc2O)Oc2c1ccc(O)c2O` [Compound 4, 2-(2,4-dihydroxybenzylidene)-6,7-dihydroxy-1-benzofuran-3(2H)-one], the half-inhibitory concentration (IC50) is 1.5 µM.
Take `O=C1C(=Cc2ccc(Cl)c(Cl)c2)Oc2c1ccc(O)c2O` [Compound 5, 2-(3,4-dichlorobenzylidene)-6,7-dihydroxy-1-benzofuran-3(2H)-one]: the half-maximal inhibitory concentration (IC50) is 8 µM.
Take `O=C1c2ccc(O)c(O)c2OC1Cc1ccc(O)c(O)c1` (stereo not drawn) [Compound 89, 2-(3,4-dihydroxybenzyl)-6,7-dihydroxy-1-benzofuran-3(2H)-one]: the concentration for half-maximal inhibition (IC50) was 7 µM.
